From patent US11464788B2, “Oligomer-corticosteroid conjugates” (Nektar Therapeutics, priority 2007, dated 2022) come the findings set out here.

One series has as its target T1, glucocorticoid receptors (Rattus norvegicus, UniProt P06536).
T1 sequence (P06536 1-795): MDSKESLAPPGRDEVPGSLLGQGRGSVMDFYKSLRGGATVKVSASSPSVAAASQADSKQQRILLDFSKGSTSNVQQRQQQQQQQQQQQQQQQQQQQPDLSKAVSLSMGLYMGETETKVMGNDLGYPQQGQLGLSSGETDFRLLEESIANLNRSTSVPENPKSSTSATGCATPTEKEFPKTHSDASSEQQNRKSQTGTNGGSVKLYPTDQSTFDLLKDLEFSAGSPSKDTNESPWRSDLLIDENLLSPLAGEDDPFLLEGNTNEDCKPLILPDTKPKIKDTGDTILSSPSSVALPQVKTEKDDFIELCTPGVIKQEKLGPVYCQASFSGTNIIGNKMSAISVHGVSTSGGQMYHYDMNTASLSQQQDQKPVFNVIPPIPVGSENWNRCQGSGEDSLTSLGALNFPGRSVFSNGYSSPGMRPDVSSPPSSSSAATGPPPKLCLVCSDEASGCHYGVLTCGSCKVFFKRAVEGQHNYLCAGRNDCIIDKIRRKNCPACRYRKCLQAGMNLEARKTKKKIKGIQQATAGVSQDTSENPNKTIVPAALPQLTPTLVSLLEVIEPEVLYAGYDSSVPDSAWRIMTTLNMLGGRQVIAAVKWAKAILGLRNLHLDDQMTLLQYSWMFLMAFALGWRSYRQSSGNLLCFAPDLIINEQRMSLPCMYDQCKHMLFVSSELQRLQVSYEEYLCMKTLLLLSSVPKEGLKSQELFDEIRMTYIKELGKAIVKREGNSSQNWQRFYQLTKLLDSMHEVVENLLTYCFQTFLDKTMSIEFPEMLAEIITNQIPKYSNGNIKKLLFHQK
Nature of the series: Glucocorticoid binding assay (competitive binding with [6,7-3H]triamcinolone acetonide). The note with it: displacement of [6,7-3H]triamcinolone acetonide; glucocorticoid receptors from rat brains; 50 mM KH2PO4 pH 7.4, 0° C., 16 hours. On the procedure: The assay was used to determine whether the tested compounds bound to the glucocorticoid binding site and is based on procedures set forth in the literature. […] Int. […] Briefly, using competitive binding of with the radioligand “[6,7-^3H]triamcinolone acetonide” (30-50 Cl/mmol), reactions were carried out in 50 mM KH2PO4 (pH 7.4) containing 10 mM sodium molybdate and 10 mM α-monothioglycerol at 0° C. for 16 hours. The glucocorticoid receptors were obtained from rat brains. The reactions were terminated by rapid vacuum filtration onto glass fiber filters. Radioactively trapped onto the filters is determined and compared to control values. […] A higher IC50 value reflects a weaker binding affinity.

Like-named read-outs stand apart in the source and are kept apart here.

Consider `COCCOCCOCCOCCOCCOCCOCCOC(=O)NN=C1C=C2CCC3C(C(O)CC4(C)C3CCC4(O)C(=O)CO)C2(C)CC1` (centres unmarked) [mPEG7-Hydrocortisone], for which, at glucocorticoid receptors, the IC50 (as a rule, the point on the concentration scale where inhibition reaches its midpoint) worked out at 3.93 nM. That is a single-digit nanomolar value. Turning to `C[C@]12CCC(=O)C=C1CC[C@@H]1[C@@H]2C(=O)C[C@@]2(C)[C@H]1CC[C@]2(O)C(=O)CO` [Cortisone], the “stability of the drug” value was “stable” (pH 5.5) and “many decomposed impurities” (pH 7.4). Turning to `C[C@]12CCC(=O)C=C1CC[C@@H]1[C@@H]2[C@@H](O)C[C@@]2(C)[C@H]1CC[C@]2(O)C(=O)CO` [Hydrocortisone], for the setting “pH 7.4”, the “stability of the drug” value is listed as “much more stable than cortisone”. On glucocorticoid receptors, `CC1(C)O[C@@H]2C[C@H]3[C@@H]4CCC5=CC(=O)C=C[C@]5(C)[C@@]4(F)[C@@H](O)C[C@]3(C)[C@]2(C(=O)CO)O1` [Triamcinolone Acetonide] returned an IC50 of 1.21 nM. Take `COCCOCCOCCOCCOCCOCCOCCOC(=O)NN=C1C=C2CCC3C(C(=O)CC4(C)C3CCC4(O)C(=O)CO)C2(C)CC1` (centres unmarked) [mPEG7-Cortisone]: the “cortisone release from the conjugate (hydrolysis)” value by setting is: (pH 5.5) “able to release cortisone clearly”; (pH 7.4) “much slower than that at pH 5.5”. Also, on glucocorticoid receptors, the IC50 came to 3440 nM.
